Read-outs that look alike come from different tables or passages of the source.
Legend:
[1] = system: P. falciparum stage V gametocytes; assay: Gametocytocidal ATP bioluminescence assay (single point 5 μM and 1 μM, dose-response); format: cell-based, Plasmodium falciparum; conditions: for Ratio IC50 HepG2/IC50 P. falciparum: IC50 HepG2 divided by IC50 P. falciparum gametocytes
Experimental: Purified stage IV-V gametocytes were obtained as previously described [10]. Single point ATP bioluminescence assay and dose–response of positive hits was determined in accordance with the previously published protocol [10].

[2] = system: luciferase reaction (BacTiter-Glo); assay: Interference assay (inhibition of the BacTiter-Glo luciferase reaction); format: biochemical; set-up: concentration or dose not given beside the values; conditions: ATP interference assay
Experimental: To discard possible false-positive results, we performed an interference assay in parallel. […] […]. The ATP solution was made by dissolving ATP powder (ATP standard from the ATPlite 1 step assay kit, reference 6016731, Perkin Elmer) in culture medium. The positive control used was the Luciferase Inhibitor I Calbiochem (Merck, 119113) at 100 μM.

HepG2 cells = assay: Cytotoxicity in HepG2 cells (intracellular ATP, ATPlite, 48 h); format: cell-based, human; conditions: HepG2 cells; IC50 per ratio column head; unit inferred
[3] = system: P. falciparum asexual stages; conditions: asexual stages; TCAMS data; read-out: IC50 asexual; cited from earlier work
[4] = P. falciparum gametocytes, average, read-out: IC50 Pf Gametocytes average, IC50 (µM) average
[5] = sexual stages (gametocytes), dose-response, read-out: IC50 sexual

Structure (SMILES)	Ratio IC50 HepG2/IC50 P. falciparum [1]	IC50 [1, 4]	% Control luminiscence [2]	IC50 (HepG2 cells)	IC50 [3]	IC50 [1, 5]
CN(CCCNCc1cccc2ccccc12)CCCNCc1cccc2ccccc12 [TCMDC-137905]	25	0.23 µM	100%	5720 nM	722 nM	–
CCc1c(CCNCCCCCCNCCc2ccc([N+](=O)[O-])cc2)ccc(OC)c1OC [TCMDC-132066]	12	0.54 µM	100%	6670 nM	727 nM	0.537 µM
CN1CCC(C(=O)N(Cc2ccc(-c3ccc(CNCCc4ccccc4)cn3)cc2)C2CCN(Cc3ccccc3)CC2)CC1 [TCMDC-141552]	10	0.9 µM	95%	9270 nM	787 nM	0.897 µM
Cc1cccc2[nH]cc(C3CCN(CC4CCC(NC(=O)/C=C/c5ccc(Cl)c(Cl)c5)CC4)CC3)c12 (stereo not shown) [TCMDC-140137]	2	1.45 µM	100%	2950 nM	163 nM	1.45 µM
CC(Cc1ccc(C(=O)Nc2ccc(CC(C)NCCc3cccc(Cl)c3)cc2)cc1)NCCc1ccc(C(F)(F)F)cc1 (stereo not shown) [TCMDC-139790]	11	0.31 µM	100%	3300 nM	570 nM	0.307 µM
CN1CCN(CC2(Nc3nccc(NCCc4cn(C)c5ccccc45)n3)CCCCC2)CC1 [TCMDC-135122]	10	0.7 µM	95%	6940 nM	1810 nM	0.697 µM
CCCCCCC(N)c1ccc(OCCCOc2ccc(C(N)CCCCCC)cc2)cc1 (stereo not shown) [TCMDC-137621]	36	0.0533 µM	100%	1900 nM	1140 nM	0.053 µM
CC(Cc1ccc(CNC(=O)c2ccc(CC(C)NCCc3cccc(Cl)c3)cc2)cc1)NCCc1cccc(Cl)c1 (stereo not shown) [TCMDC-139659]	5.53	0.57 µM	98%	3150 nM	696 nM	–
CCN(CC)CCCn1c(N)c(-c2nc3ccccc3[nH]2)c2nc(C#N)c(C#N)nc21 [TCMDC-123680]	62	0.14 µM	100%	8700 nM	267 nM	–
COc1ccc(CNC2Cc3ccccc3C2)cc1-c1ccc(S(=O)(=O)NCCN2CCCC2)cc1 [TCMDC-132248]	6	1.38 µM	100%	8280 nM	582 nM	1.38 µM
Cc1cccc(-c2nc(Nc3ccncc3)c3cc(N(C)C)ccc3n2)n1 [TCMDC-135308]	>9	2.66 µM	98%	> 25000 nM	710 nM	–
CC(C)CNCc1ccc(-c2ccc(CN(CCCN3CCN(C)CC3)C(=O)CCC3CCCC3)cc2)cc1 [TCMDC-140559]	10	0.54 µM	100%	5390 nM	1060 nM	–
CN(C)c1ccc2c(c1)Sc1cc(N(C)C)ccc1N2C(=O)CCCC(=O)O [TCMDC-125778]	–	> 5 µM	100%	> 25000 nM	802 nM	–
N=c1n(Cc2ccc(Cl)cc2)c2ccccc2n1CC(O)c1ccc(Cl)c(Cl)c1 (stereo not shown) [TCMDC-123813]	18	0.36 µM	99%	6500 nM	677 nM	0.357 µM
Cc1nn(CC(C)C)c2sc(C(=O)N3CCN(S(=O)(=O)c4ccc(C#N)cc4)CC3)cc12 [TCMDC-125045]	>12	2.09 µM	92%	> 25000 nM	739 nM	2.09 µM
CN(C)CCNCc1cccc(-c2ccc3c(Nc4ccc(Oc5ccccn5)cc4)ccnc3c2)c1 [TCMDC-138493]	20	0.22 µM	100%	4490 nM	233 nM	–
CN1CCN(CCCN(Cc2cccc(-c3cccc(CNC4CCCC4)c3)c2)C(=O)CCC2CCCC2)CC1 [TCMDC-140555]	9	0.81 µM	100%	7500 nM	675 nM	0.807 µM
COc1ccc(CNCCCCCCNCc2ccc(OC)c3ccccc23)c2ccccc12 [TCMDC-137631]	6	0.51 µM	91%	3060 nM	581 nM	0.505 µM
O=C(Nc1cccc(-c2cccc(-c3ccc(F)cc3)n2)c1)c1ccc([N+](=O)[O-])o1 [TCMDC-124807]	4.55	1.53 µM	100%	6940 nM	361 nM	1.53 µM
c1cc(C2=NC3CCCCC3N2)ccc1OCCCCCOc1ccc(C2=NC3CCCCC3N2)cc1 (stereo not shown) [TCMDC-137802]	13	0.28 µM	100%	3740 nM	228 nM	–
COc1ccc(CNCCc2cccs2)cc1-c1cccc(S(=O)(=O)NCCN2CCCC2)c1 [TCMDC-132479]	7	1.68 µM	94%	11400 nM	877 nM	1.68 µM
COc1ccc(CNCc2ccc(F)cc2)cc1-c1ccc(S(=O)(=O)NCCN2CCCC2)cc1 [TCMDC-132294]	5.36	1.21 µM	98%	6500 nM	1040 nM	1.21 µM
O=C(Nc1ccc(Oc2ccccc2)cc1)N(CCN1CCCC1)Cc1ccc(-c2ccc(CN3CCNCC3)cc2)cc1 [TCMDC-139652]	7	1.02 µM	93%	7080 nM	892 nM	1.01 µM
c1ccc(CSC2=NNC(c3ccccn3)S2)cc1 (stereo not shown) [TCMDC-123769]	>3	7.98 µM	100%	> 25000 nM	1480 nM	7.98 µM
COC(=O)c1sc(-c2ccc(Cl)cc2)cc1N(CCCN1CCC(N2CCCCC2)CC1)S(=O)(=O)c1ccc(C)cc1 [TCMDC-135561]	1.3	3.36 µM	93%	4370 nM	744 nM	3.37 µM
CCOCn1c(-c2ccccc2)cc2c3c(N)nc(N)nc3ccc21 [TCMDC-137979]	4.35	1.3 µM	94%	5650 nM	186 nM	–
CN(C)CCCn1c(N)c(-c2nc3ccccc3[nH]2)c2nc(C#N)c(C#N)nc21 [TCMDC-123729]	35	0.2 µM	100%	6930 nM	591 nM	–
CC(C)CNCc1ccc(-c2ccc(CN(CCCN3CCN(C)CC3)C(=O)/C=C/c3ccccc3)cc2)cc1 [TCMDC-140546]	7	1 µM	100%	6990 nM	917 nM	1 µM
